# Source: patent publication US20220160712A1, “METHODS OF TREATING RHEUMATOID ARTHRITIS AND FOR PREDICTING THE RESPONSE TO METHOTREXATE” (CHAN ZUCKERBERG BIOHUB, INC., priority 2020, published 2022)
# Legend:
# [1] = tested on: B. vulgatus, B. thetaiotaomicron, C. innocuum, and C. symbiosum; assay: In vitro bacterial rescue study with leucovorin; assay type: cell-based
# B. vulgatus = assay: In vitro bacterial rescue study with folic acid; assay type: cell-based, Bacteroides vulgatus; settings: folic acid 0-250 μg/ml; MTX 0-450 μg/ml
# Protocol: (§1) As described in the ur in vitro bacterial growth studies, 48-hour overnight cultures were grown in an anaerobic chamber in liquid BHI+ for the following isolates: Bacteroides vulgatus, Bacteroides thetaiotaomicron, Clostridium innocuum and Clostridium symbiosum. Each subculture was diluted down to an OD600 of 0.08-0.1, which was then further diluted 100-fold, and then used to inoculate a 96-well microtiter plate with 2-fold serial dilutions of MTX (Sigma, Cat #M9929) concentrations ranging from 0-450 μg/ml (0-990 μM) along the columns (1-10) and 2-fold serial dilutions of folic acid (Fischer Scientific, BP25195) ranging from 0-250 μg/ml (0-566 μM) along the rows (A-H). Each plate included media and growth controls. […]
# (§2) Growth parameters (carrying capacity, time to mid-exponential and growth rate) were calculated in R using GrowthCurveR (Sprouffske, K., and Wagner, A. (2016), BMC Bioinformatics 17, 1726) (v0.2.1). […] For rescue studies, as above, growth parameters (carrying capacity, time to mid-exponential, growth rate, and area under the curve) were calculated in R using GrowthCurveR (Sprouffske and Wagner, 2016) (v0.2.1). Four isolates were evaluated with varying sensitivity to MTX (B. thetaiotaomicron, B. vulgatus, C. innocuum and C. symbiosum). […] Growth curves at 9 concentrations of MTX tested against 7 concentrations of folic acid were measured. […]
# C. symbiosum = assay: In vitro bacterial rescue study with folic acid; assay type: cell-based, Clostridium symbiosum; settings: MTX resistant isolate; high doses of MTX
# Protocol: as §1, §2
# C. innocuum = assay: In vitro bacterial rescue study with folic acid; assay type: cell-based, Clostridium innocuum; settings: folic acid 0-250 μg/ml; MTX 0-450 μg/ml
# Protocol: as §1, §2
# human gut microbiota = assay: MTX treatment of gnotobiotic mice colonized with human stool; 16S-seq and qPCR of gut microbiota; assay type: in vivo; settings: Donor 3 mice, oral MTX 50 mg/kg with or without equimolar folic acid
# B. theta = assay: In vitro bacterial rescue study with folic acid; assay type: cell-based, Bacteroides thetaiotaomicron; settings: in the presence and absence of MTX; folic acid 0-250 μg/ml
# Protocol: as §1, §2
SMILES,effect of leucovorin on growth of the tested isolates ([1]; leucovorin 0-125 μg/ml (FIG. 4D and 4E)),"dose-dependent effects of leucovorin on growth in the presence of MTX ([1]; leucovorin 0-125 μg/ml, linear regression (FIG. 4F))",dose-dependent increases in growth with folic acid (B. vulgatus),effect of folic acid on MTX sensitivity (C. symbiosum),dose-dependent increases in growth with folic acid (C. innocuum),rescue of the gut microbiota from MTX by co-administered folic acid (α- or β-diversity between groups) (human gut microbiota),rescue of the gut microbiota from MTX by co-administered folic acid (α- or β-diversity between groups) (human gut microbiota; listed as Folic acid),growth in response to folic acid (B. theta)
Nc1nc2c(c(=O)[nH]1)N(C=O)C(CNc1ccc(C(=O)N[C@@H](CCC(=O)O)C(=O)O)cc1)CN2 (some centres unmarked) [leucovorin],improved growth of 3 of the 4 tested isolates,did not have any significant dose-dependent effects,,,,,,
Nc1nc2ncc(CNc3ccc(C(=O)N[C@@H](CCC(=O)O)C(=O)O)cc3)nc2c(=O)[nH]1 [folic acid],,,only evident in the presence of MTX,sensitized to MTX,only evident in the presence of MTX,Neither route nor rescue resulted in a significant difference,did not markedly rescue the gut microbiota,improved in a dose-dependent manner
